Data: PubChem BioAssay (NCI)
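Each compound was tested at five concentrations against cells in 96-well plates for 48 hours. At the TGI there is no net growth.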

Key:
Assay in all cases: NCI-60 cell line screen, 48 h
HCT-15 colon = system: HCT-15 colon
MDA-MB-231 breast = system: MDA-MB-231 breast
SK-MEL-5 melanoma = system: SK-MEL-5 melanoma
CCRF-CEM leukemia = system: CCRF-CEM leukemia
NCI-H23 lung = system: NCI-H23 lung
PC-3 prostate = system: PC-3 prostate
HT29 colon = system: HT29 colon
BT-549 breast = system: BT-549 breast
T-47D breast = system: T-47D breast
DU-145 prostate = system: DU-145 prostate
SK-MEL-28 melanoma = system: SK-MEL-28 melanoma
MALME-3M melanoma = system: MALME-3M melanoma
OVCAR-8 ovarian = system: OVCAR-8 ovarian
IGROV1 ovarian = system: IGROV1 ovarian
HL-60(TB) leukemia = system: HL-60(TB) leukemia
COLO 205 colon = system: COLO 205 colon
MCF7 breast = system: MCF7 breast
SR leukemia = system: SR leukemia
RPMI-8226 leukemia = system: RPMI-8226 leukemia
SF-539 CNS = system: SF-539 CNS
SF-295 CNS = system: SF-295 CNS
KM12 colon = system: KM12 colon
UACC-257 melanoma = system: UACC-257 melanoma
HS 578T breast = system: HS 578T breast
A498 renal = system: A498 renal
M14 melanoma = system: M14 melanoma
MDA-MB-435 = system: MDA-MB-435
SNB-75 CNS = system: SNB-75 CNS
UO-31 renal = system: UO-31 renal
MDA-N = system: MDA-N
ACHN renal = system: ACHN renal
HCC-2998 colon = system: HCC-2998 colon
TK-10 renal = system: TK-10 renal
K-562 leukemia = system: K-562 leukemia
HOP-62 NSCLC = system: HOP-62 NSCLC
SNB-19 CNS = system: SNB-19 CNS
SW-620 colon = system: SW-620 colon
786-0 renal = system: 786-0 renal
A549 NSCLC = system: A549 NSCLC
HCT-116 colon = system: HCT-116 colon
SK-OV-3 ovarian = system: SK-OV-3 ovarian
UACC-62 melanoma = system: UACC-62 melanoma
LOX IMVI melanoma = system: LOX IMVI melanoma
CAKI-1 renal = system: CAKI-1 renal
NCI-H226 lung = system: NCI-H226 lung
NCI-H522 lung = system: NCI-H522 lung
NCI-H460 lung = system: NCI-H460 lung
MOLT-4 leukemia = system: MOLT-4 leukemia
EKVX NSCLC = system: EKVX NSCLC
SF-268 CNS = system: SF-268 CNS
SN12C renal = system: SN12C renal
U251 CNS = system: U251 CNS
OVCAR-3 ovarian = system: OVCAR-3 ovarian
OVCAR-4 ovarian = system: OVCAR-4 ovarian
OVCAR-5 ovarian = system: OVCAR-5 ovarian
SK-MEL-2 melanoma = system: SK-MEL-2 melanoma

**Q.** How did the TGI (HCT-15 colon) turn out when `COc1ccc(C2SC(N)=Nc3c2c(C)nn3C(=O)Cc2ccccc2)cc1` (stereo unspecified) was run?
**A.** Its TGI is > 100 µM.

**Q.** And the TGI (MDA-MB-231 breast)?
**A.** Its TGI is > 100 µM.

**Q.** What about the TGI (SK-MEL-5 melanoma) of the same molecule?
**A.** The TGI was > 100 µM.

**Q.** What about the TGI (CCRF-CEM leukemia) of the same molecule?
**A.** Its TGI is > 100 µM.

**Q.** And the TGI (NCI-H23 lung)?
**A.** Its TGI is > 100 µM.

**Q.** What about the TGI (PC-3 prostate) of the same molecule?
**A.** The TGI was > 100 µM.

**Q.** And the TGI (HT29 colon)?
**A.** The TGI was > 100 µM.

**Q.** And the TGI (BT-549 breast)?
**A.** The TGI was > 100 µM.

**Q.** And the TGI (T-47D breast)?
**A.** Its TGI is > 100 µM.

**Q.** What about the TGI (DU-145 prostate) of the same molecule?
**A.** Its TGI is > 100 µM.

**Q.** What about the TGI (SK-MEL-28 melanoma) of the same molecule?
**A.** Its TGI is > 100 µM.

**Q.** And the TGI (MALME-3M melanoma)?
**A.** The TGI was > 100 µM.

**Q.** And the TGI (OVCAR-8 ovarian)?
**A.** Its TGI is > 100 µM.

**Q.** And the TGI (IGROV1 ovarian)?
**A.** Its TGI is > 100 µM.

**Q.** And the TGI (HL-60(TB) leukemia)?
**A.** The TGI was > 100 µM.

**Q.** What about the TGI (COLO 205 colon) of the same molecule?
**A.** Its TGI is > 100 µM.

**Q.** And the TGI (MCF7 breast)?
**A.** The TGI was > 100 µM.

**Q.** And the TGI (SR leukemia)?
**A.** The TGI was > 100 µM.

**Q.** And the TGI (RPMI-8226 leukemia)?
**A.** The TGI was > 100 µM.

**Q.** What about the TGI (SF-539 CNS) of the same molecule?
**A.** The TGI was > 100 µM.

**Q.** What about the TGI (SF-295 CNS) of the same molecule?
**A.** Its TGI is > 100 µM.

**Q.** What about the TGI (KM12 colon) of the same molecule?
**A.** Its TGI is > 100 µM.

**Q.** What about the TGI (UACC-257 melanoma) of the same molecule?
**A.** Its TGI is > 100 µM.

**Q.** What about the TGI (HS 578T breast) of the same molecule?
**A.** The TGI was > 100 µM.

**Q.** And the TGI (A498 renal)?
**A.** Its TGI is > 100 µM.

**Q.** What about the TGI (M14 melanoma) of the same molecule?
**A.** The TGI was > 100 µM.

**Q.** And the TGI (MDA-MB-435)?
**A.** Its TGI is > 100 µM.

**Q.** And the TGI (SNB-75 CNS)?
**A.** The TGI was > 100 µM.

**Q.** And the TGI (UO-31 renal)?
**A.** The TGI was > 100 µM.

**Q.** And the TGI (MDA-N)?
**A.** The TGI was > 100 µM.

**Q.** And the TGI (ACHN renal)?
**A.** The TGI was > 100 µM.

**Q.** And the TGI (HCC-2998 colon)?
**A.** The TGI was > 100 µM.

**Q.** What about the TGI (TK-10 renal) of the same molecule?
**A.** Its TGI is > 100 µM.

**Q.** What about the TGI (K-562 leukemia) of the same molecule?
**A.** The TGI was > 100 µM.

**Q.** And the TGI (HOP-62 NSCLC)?
**A.** Its TGI is > 100 µM.

**Q.** What about the TGI (SNB-19 CNS) of the same molecule?
**A.** The TGI was > 100 µM.

**Q.** And the TGI (SW-620 colon)?
**A.** The TGI was > 100 µM.

**Q.** What about the TGI (786-0 renal) of the same molecule?
**A.** Its TGI is > 100 µM.

**Q.** What about the TGI (A549 NSCLC) of the same molecule?
**A.** Its TGI is > 100 µM.

**Q.** And the TGI (HCT-116 colon)?
**A.** Its TGI is > 100 µM.

**Q.** And the TGI (SK-OV-3 ovarian)?
**A.** Its TGI is > 100 µM.

**Q.** And the TGI (UACC-62 melanoma)?
**A.** Its TGI is > 100 µM.

**Q.** And the TGI (LOX IMVI melanoma)?
**A.** Its TGI is > 100 µM.

**Q.** What about the TGI (CAKI-1 renal) of the same molecule?
**A.** The TGI was > 100 µM.

**Q.** What about the TGI (NCI-H226 lung) of the same molecule?
**A.** Its TGI is > 100 µM.

**Q.** And the TGI (NCI-H522 lung)?
**A.** Its TGI is > 100 µM.

**Q.** What about the TGI (NCI-H460 lung) of the same molecule?
**A.** The TGI was > 100 µM.

**Q.** What about the TGI (MOLT-4 leukemia) of the same molecule?
**A.** Its TGI is > 100 µM.

**Q.** And the TGI (EKVX NSCLC)?
**A.** Its TGI is > 100 µM.

**Q.** And the TGI (SF-268 CNS)?
**A.** Its TGI is > 100 µM.

**Q.** What about the TGI (SN12C renal) of the same molecule?
**A.** Its TGI is > 100 µM.

**Q.** Which results are given for `CCC1OC(=O)CC(O)C(C)C(OC2OC(C)C(O)C(N(C)C)C2O)C(CC=O)CC(C)C(=O)/C=C/C2(C)OC2C1C` (stereo unspecified)?
**A.** TGI (HCT-15 colon): > 100 µM; TGI (MDA-MB-231 breast): 66.2 µM; TGI (SK-MEL-5 melanoma): > 100 µM; TGI (CCRF-CEM leukemia): 60.2 µM; TGI (NCI-H23 lung): 91.8 µM; TGI (U251 CNS): > 100 µM; TGI (OVCAR-3 ovarian): 73.6 µM; TGI (PC-3 prostate): > 100 µM; TGI (HT29 colon): 37 µM; TGI (BT-549 breast): 99.6 µM; TGI (T-47D breast): 53.7 µM; TGI (DU-145 prostate): > 100 µM; TGI (SK-MEL-28 melanoma): > 100 µM; TGI (OVCAR-4 ovarian): > 100 µM; TGI (MALME-3M melanoma): 27.4 µM; TGI (OVCAR-8 ovarian): 18.3 µM; TGI (IGROV1 ovarian): 47.6 µM; TGI (HL-60(TB) leukemia): > 100 µM; TGI (COLO 205 colon): 36.3 µM; TGI (MCF7 breast): 50.7 µM; TGI (SR leukemia): 44.6 µM; TGI (RPMI-8226 leukemia): 34.6 µM; TGI (SF-539 CNS): 80.5 µM; TGI (SF-295 CNS): > 100 µM; TGI (KM12 colon): 29.6 µM; TGI (UACC-257 melanoma): 44.7 µM; TGI (HS 578T breast): 76.1 µM; TGI (A498 renal): 94.3 µM; TGI (M14 melanoma): 39.2 µM; TGI (OVCAR-5 ovarian): > 100 µM; TGI (MDA-MB-435): > 100 µM; TGI (SNB-75 CNS): 90 µM; TGI (MDA-N): > 100 µM; TGI (ACHN renal): > 100 µM; TGI (HCC-2998 colon): 31.2 µM; TGI (TK-10 renal): > 100 µM; TGI (K-562 leukemia): > 100 µM; TGI (HOP-62 NSCLC): > 100 µM; TGI (SNB-19 CNS): > 100 µM; TGI (SW-620 colon): 41.2 µM; TGI (786-0 renal): 72.6 µM; TGI (A549 NSCLC): > 100 µM; TGI (HCT-116 colon): 37.2 µM; TGI (SK-OV-3 ovarian): > 100 µM; TGI (UACC-62 melanoma): 49.8 µM; TGI (LOX IMVI melanoma): 34.1 µM; TGI (SK-MEL-2 melanoma): > 100 µM; TGI (CAKI-1 renal): 82.1 µM; TGI (NCI-H226 lung): > 100 µM; TGI (NCI-H522 lung): 33 µM; TGI (NCI-H460 lung): > 100 µM; TGI (MOLT-4 leukemia): 41.2 µM; TGI (EKVX NSCLC): > 100 µM; TGI (SF-268 CNS): 79.8 µM; TGI (SN12C renal): 30.5 µM
